Consider 21 compounds from patent US11370798B2 (Vertex Pharmaceuticals Incorporated, priority 2012, dated 2022).

Molecules are shown by their SMILES.

The experiment relates to HCT116 colorectal cancer cells. Description: Cisplatin sensitization assay (96 h cell viability MTS).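 Further: Test-compound concentration that lowers the Cisplatin IC50 by a set fold.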 Format: cell-based. The note with it: compound and Cisplatin added simultaneously, Cisplatin sensitization value. The method in brief:
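Compound and cisplatin added together as a full matrix of 2-fold serial dilutions from a top final concentration of 10 μM; cells incubated 96 h at 37° C, 5% CO2. Viability then read by MTS after 1 h further incubation; sensitization value reported in μM bins.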
`CN1CCN(c2ccncc2NC(=O)c2c(N)nn3cc(CC#N)cnc23)CC1` [I-N-82, 2-amino-6-(cyanomethyl)-N-(4-(4-methylpiperazin-1-yl)pyridin-3-yl)pyrazolo[1,5-a]pyrimidine-3-carboxamide]: the “Cisplatin Sensitization Assay” value is reported as “++ (Cisplatin sensitization value>0.02 μM but <0.2 μM)”.

Regarding `N#CCc1cnc2c(C(=O)Nc3cnccc3N3CCC(O)CC3)c(N)nn2c1` [I-N-83, 2-amino-6-(cyanomethyl)-N-(4-(4-hydroxypiperidin-1-yl)pyridin-3-yl)pyrazolo[1,5-a]pyrimidine-3-carboxamide], the “Cisplatin Sensitization Assay” value is on record as “++ (Cisplatin sensitization value>0.02 μM but <0.2 μM)”.

As for `N#CCc1cnc2c(C(=O)Nc3cnccc3N3CCCCC3)c(N)nn2c1` [I-N-84, 2-amino-6-(cyanomethyl)-N-(4-(piperidin-1-yl)pyridin-3-yl)pyrazolo[1,5-a]pyrimidine-3-carboxamide], the “Cisplatin Sensitization Assay” value is reported as “+++ (Cisplatin sensitization value of <0.02 μM)”.

In the case of `CN1CCN(c2c(Cl)cncc2NC(=O)c2c(N)nn3cc(F)cnc23)CC1` [I-N-85, 2-amino-N-(5-chloro-4-(4-methylpiperazin-1-yl)pyridin-3-yl)-6-fluoropyrazolo[1,5-a]pyrimidine-3-carboxamide], the “Cisplatin Sensitization Assay” value is given as “++ (Cisplatin sensitization value>0.02 μM but <0.2 μM)”.

Consider `Nc1nn2cc(Cl)cnc2c1C(=O)Nc1cnccc1N1CCC(N)CC1` [I-N-86, 2-amino-N-(4-(4-aminopiperidin-1-yl)pyridin-3-yl)-6-chloropyrazolo[1,5-a]pyrimidine-3-carboxamide], for which the “Cisplatin Sensitization Assay” value is “+++ (Cisplatin sensitization value of <0.02 μM)”.

On to `CNC1CCN(c2ccncc2NC(=O)c2c(N)nn3cc(Cl)cnc23)CC1` [I-N-87, 2-amino-6-chloro-N-(4-(4-(methylamino)piperidin-1-yl)pyridin-3-yl)pyrazolo[1,5-a]pyrimidine-3-carboxamide], for which the “Cisplatin Sensitization Assay” value was “++ (Cisplatin sensitization value>0.02 μM but <0.2 μM)”.

Turning to `Nc1nn2cc(Cl)cnc2c1C(=O)Nc1cnccc1N1CCNCC1` [I-N-88, 2-amino-6-chloro-N-(4-(piperazin-1-yl)pyridin-3-yl)pyrazolo[1,5-a]pyrimidine-3-carboxamide], the “Cisplatin Sensitization Assay” value is recorded as “++ (Cisplatin sensitization value>0.02 μM but <0.2 μM)”.

On to `N#CCc1cnc2c(C(=O)Nc3cnccc3N3CCNCC3)c(N)nn2c1` [I-N-89, 2-amino-6-(cyanomethyl)-N-(4-(piperazin-1-yl)pyridin-3-yl)pyrazolo[1,5-a]pyrimidine-3-carboxamide], for which the “Cisplatin Sensitization Assay” value was “++ (Cisplatin sensitization value>0.02 μM but <0.2 μM)”.

Regarding `N#CCc1cnc2c(C(=O)Nc3cnccc3N3CCOC(CN)C3)c(N)nn2c1` (stereo not drawn) [I-N-90, 2-amino-N-(4-(2-(aminomethyl)morpholino)pyridin-3-yl)-6-(cyanomethyl)pyrazolo[1,5-a]pyrimidine-3-carboxamide], the “Cisplatin Sensitization Assay” value is on record as “+ (Cisplatin sensitization value>0.2 μM but <5 μM)”.

For `NCC1CCN(c2ccncc2NC(=O)c2c(N)nn3cc(Cl)cnc23)CC1` [I-N-91, 2-amino-N-(4-(4-(aminomethyl)piperidin-1-yl)pyridin-3-yl)-6-chloropyrazolo[1,5-a]pyrimidine-3-carboxamide], the “Cisplatin Sensitization Assay” value is on record as “++ (Cisplatin sensitization value>0.02 μM but <0.2 μM)”.

For the compound `Nc1nn2cc(F)cnc2c1C(=O)Nc1cncc(F)c1N1CCC(C(=O)O)CC1` [I-N-92, 1-(3-(2-amino-6-fluoropyrazolo[1,5-a]pyrimidine-3-carboxamido)-5-fluoropyridin-4-yl)piperidine-4-carboxylic acid], the “Cisplatin Sensitization Assay” value was “+ (Cisplatin sensitization value>0.2 μM but <5 μM)”.

For `CN(C)C1CN(C2CCN(c3ccncc3NC(=O)c3c(N)nn4cc(Cl)cnc34)CC2)C1` [I-N-94, 2-amino-6-chloro-N-(4-(4-(3-(dimethylamino)azetidin-1-yl)piperidin-1-yl)pyridin-3-yl)pyrazolo[1,5-a]pyrimidine-3-carboxamide], the “Cisplatin Sensitization Assay” value is reported as “+++ (Cisplatin sensitization value of <0.02 μM)”.

On to `COC1CCN(C2CCN(c3ccncc3NC(=O)c3c(N)nn4cc(Cl)cnc34)CC2)C1` (stereo not drawn) [I-N-95, 2-amino-6-chloro-N-(4-(4-(3-methoxypyrrolidin-1-yl)piperidin-1-yl)pyridin-3-yl)pyrazolo[1,5-a]pyrimidine-3-carboxamide], for which the “Cisplatin Sensitization Assay” value is “++ (Cisplatin sensitization value>0.02 μM but <0.2 μM)”.

Take `CN1CCN(C2CCN(c3ccncc3NC(=O)c3c(N)nn4cc(Cl)cnc34)CC2)CC1` [I-N-97, 2-amino-6-chloro-N-(4-(4-(4-methylpiperazin-1-yl)piperidin-1-yl)pyridin-3-yl)pyrazolo[1,5-a]pyrimidine-3-carboxamide]: the “Cisplatin Sensitization Assay” value was “+++ (Cisplatin sensitization value of <0.02 μM)”.

For the compound `Nc1nn2cc(Cl)cnc2c1C(=O)Nc1cnccc1N1CCC(N2CC[C@@H](F)C2)CC1` [I-N-98, (R)-2-amino-6-chloro-N-(4-(4-(3-fluoropyrrolidin-1-yl)piperidin-1-yl)pyridin-3-yl)pyrazolo[1,5-a]pyrimidine-3-carboxamide], the “Cisplatin Sensitization Assay” value was “+++ (Cisplatin sensitization value of <0.02 μM)”.

As to `Nc1nn2cc(Cl)cnc2c1C(=O)Nc1cnccc1N1CCC(N2CCC3(COC3)C2)CC1` [I-N-99, N-(4-(4-(2-oxa-6-azaspiro[3.4]octan-6-yl)piperidin-1-yl)pyridin-3-yl)-2-amino-6-chloropyrazolo[1,5-a]pyrimidine-3-carboxamide], the “Cisplatin Sensitization Assay” value is given as “+++ (Cisplatin sensitization value of <0.02 μM)”.

In the case of `Nc1nn2cc(Cl)cnc2c1C(=O)Nc1cnccc1N1CCC(N2CC[S+]([O-])CC2)CC1` [I-N-100, 2-amino-6-chloro-N-(4-(4-(1-oxidothiomorpholino)piperidin-1-yl)pyridin-3-yl)pyrazolo[1,5-a]pyrimidine-3-carboxamide], the “Cisplatin Sensitization Assay” value is given as “++ (Cisplatin sensitization value>0.02 μM but <0.2 μM)”.

Consider `Nc1nn2cc(Cl)cnc2c1C(=O)Nc1cnccc1N1CCC(N2CCn3cncc3C2)CC1` [I-N-101, 2-amino-6-chloro-N-(4-(4-(5,6-dihydroimidazo[1,5-a]pyrazin-7(8H)-yl)piperidin-1-yl)pyridin-3-yl)pyrazolo[1,5-a]pyrimidine-3-carboxamide], for which the “Cisplatin Sensitization Assay” value is given as “++ (Cisplatin sensitization value>0.02 μM but <0.2 μM)”.

Take `Nc1nn2cc(Cl)cnc2c1C(=O)Nc1cnccc1N1CCC(N2CCn3ccnc3C2)CC1` [I-N-102, 2-amino-6-chloro-N-(4-(4-(5,6-dihydroimidazo[1,2-a]pyrazin-7(8H)-yl)piperidin-1-yl)pyridin-3-yl)pyrazolo[1,5-a]pyrimidine-3-carboxamide]: the “Cisplatin Sensitization Assay” value is given as “++ (Cisplatin sensitization value>0.02 μM but <0.2 μM)”.

On to `Nc1nn2cc(Cl)cnc2c1C(=O)Nc1cnccc1N1CCC(N2CC[C@H](F)C2)CC1` [I-N-103, (S)-2-amino-6-chloro-N-(4-(4-(3-fluoropyrrolidin-1-yl)piperidin-1-yl)pyridin-3-yl)pyrazolo[1,5-a]pyrimidine-3-carboxamide], for which the “Cisplatin Sensitization Assay” value is listed as “+++ (Cisplatin sensitization value of <0.02 μM)”.

Take `Nc1nn2cc(Cl)cnc2c1C(=O)Nc1cnccc1N1CCC(N2CCOCC2)CC1` [I-N-104, 2-amino-6-chloro-N-(4-(4-morpholinopiperidin-1-yl)pyridin-3-yl)pyrazolo[1,5-a]pyrimidine-3-carboxamide]: the “Cisplatin Sensitization Assay” value is recorded as “+++ (Cisplatin sensitization value of <0.02 μM)”.
